pIC50, pKi: −log10 of the molar value.
Tests used:
human M4 receptor = target: T1, human M4 receptor (Homo sapiens, UniProt P08173); assay: Radioligand ([3H]N-methylscopolamine) binding assay, membranes from CHO cells expressing human M4 receptor; conditions: Ki against human M4 receptor; membranes from CHO cells; tritiated N-methylscopolamine 1.5 nM; read-out: K
T1 construct: expressed in transfected cells; host or cells: CHO cells
T1 sequence (P08173 1-479): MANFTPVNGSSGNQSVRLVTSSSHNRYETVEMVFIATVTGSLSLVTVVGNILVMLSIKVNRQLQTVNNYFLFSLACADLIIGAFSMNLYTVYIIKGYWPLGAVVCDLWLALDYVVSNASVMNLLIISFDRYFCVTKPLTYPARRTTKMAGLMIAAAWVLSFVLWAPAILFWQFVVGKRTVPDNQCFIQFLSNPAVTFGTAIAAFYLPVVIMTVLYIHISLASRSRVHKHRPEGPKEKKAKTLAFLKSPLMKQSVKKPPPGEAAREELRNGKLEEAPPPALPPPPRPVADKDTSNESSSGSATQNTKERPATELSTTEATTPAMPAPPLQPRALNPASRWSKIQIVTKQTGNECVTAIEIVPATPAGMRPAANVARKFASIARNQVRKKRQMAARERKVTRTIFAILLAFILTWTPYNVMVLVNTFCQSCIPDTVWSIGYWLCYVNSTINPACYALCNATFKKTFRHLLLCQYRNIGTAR
Outline: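 Ki values derive from displacement of tritiated N-methylscopolamine (1.5 nM) from human M4 receptor in CHO membranes. Membranes, radioligand and twelve-point compound series were incubated together at 37 °C for 90 minutes in pH 7.4 HEPES/NaCl/MgCl2/EDTA buffer. Rapid vacuum filtration over polyethylenimine-pretreated filters was followed by radioactivity counting.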

[1] = target: T2, Human muscarinic 4 receptor (CHRM4) (Homo sapiens, UniProt P08173); assay: Fluorescence-based functional calcium assay, antagonism of acetylcholine response in CHO-K1 cells with Gα16; format: cell-based; conditions: inhibition of the acetylcholine response
T2 construct: host or cells: CHO-K1
T2 sequence (P08173 1-479): T1 sequence (P08173 1-479)
Protocol: Functional antagonism of acetylcholine responses was evaluated using a fluorescence-based functional calcium assay. Acetylcholine binding to the muscarinic receptors activates G-proteins. Human muscarinic 4 receptor (CHRM4) was stably expressed in CHO-K1 cells and a promiscuous Gα16 construct is co-transfected. This cell line was commercially available through PerkinElmer (product number ES-213-A). Following ligand binding, activation of the Ga16 subunit induces the release of calcium from the endoplasmic reticulum. Prior to ligand screening, the receptor-expressing cells were loaded with a fluorescent calcium indicator, FLIPR Calcium 6 (Molecular Devices). Antagonist activity of the compounds was determined as the EC50 for inhibition of the acetylcholine response. The assay buffer used was a 1:1 solution of buffer (1× Hank's balanced salt solution plus 20 mM HEPES buffer, pH 7.4) and cell medium (Ham's F-12, 10% FBS, 0.4 mg/mL Geneticin, 0.25 mg/mL Zeocin). The day before the assay, 4×10^3 cells per well were seeded into an assay plate in 25 μL of medium and allowed to incubate overnight at 37° C. and 5% CO2. The following day, 25 μL of Calcium 6 dye was added to each well and incubated for two additional hours at 37° C. and 5% CO2. The test compound (a dose-response of eleven concentrations ranging from […]) was added to the cells to a final DMSO concentration of 0.56% v/v. One hour later, acetylcholine to a final concentration of 100 nM was added by the instrument and calcium flux-dependent fluorescence measured in real time. The concentration of acetylcholine used was that which stimulates 80% of the maximal response.

Row | SMILES | pKi (human M4 receptor) | pIC50 [1]
1 | C[C@@H]1CN(c2cnc(C(F)(F)F)cn2)[C@@H](C)CN1C(=O)OC1CC2(C1)CN(Cc1ccccc1)C2 [Compound 106, 2-benzyl-2-azaspiro[3.3]heptan-6-yl (2R,5S)-2,5-dimethyl-4-[5-(trifluoromethyl)pyrazin-2-yl]piperazine-1-carboxylate] | 7.00 to 8.00 | > 8.00
2 | C[C@@H]1CN(c2cnc(C(F)(F)F)cn2)C[C@H](C)N1C(=O)OC1CC2(C1)CN(Cc1ccccc1)C2 [Compound 141, 2-benzyl-2-azaspiro[3.3]heptan-6-yl (2R,6S)-2,6-dimethyl-4-[5-(trifluoromethyl)pyrazin-2-yl]piperazine-1-carboxylate] | 7.00 to 8.00 | > 8.00
3 | C[C@@H]1CN(c2cnc3cc(F)ccc3n2)[C@@H](C)CN1C(=O)OC1CC2(C1)CN(Cc1ccc(F)cc1)C2 [Compound 397, 2-[(4-fluorophenyl)methyl]-2-azaspiro[3.3]heptan-6-yl (2R,5S)-4-(6-fluoroquinoxalin-2-yl)-2,5-dimethylpiperazin-1-carboxylate] | 7.00 to 8.00 | –
4 | C[C@@H]1CN(c2ccc([N+](=O)[O-])cn2)C[C@H](C)N1C(=O)OC1CC2(C1)CN(Cc1ccccc1)C2 [Compound 163, 2-benzyl-2-azaspiro[3.3]heptan-6-yl (2R,6S)-2,6-dimethyl-4-(5-nitropyridin-2-yl)piperazine-1-carboxylate] | 7.00 to 8.00 | –

More lines, now with the values ahead:

Row | pKi (human M4 receptor) | pIC50 [1] | SMILES
5 | > 8.00 | > 8.00 | C[C@@H]1CN(c2ncc(C(F)(F)F)cn2)C[C@H](C)N1C(=O)OC1CC2(C1)CN(Cc1ccccc1)C2 [Compound 147, 2-Benzyl-2-azaspiro[3.3]heptan-6-yl (2R,6S)-2,6-dimethyl-4-[5-(trifluoromethyl)pyrimidin-2-yl]piperazine-1-carboxylate]
6 | > 8.00 | > 8.00 | C[C@@H]1CN(c2ncc(C(F)(F)F)cn2)C[C@H](C)N1C(=O)NC1CC2(C1)CN(Cc1ccccc1)C2 [Compound 96, (2R,6S)—N-{2-Benzyl-2-azaspiro[3.3]heptan-6-yl}-2,6-dimethyl-4-[5-(trifluoromethyl)pyrimidin-2-yl]piperazine-1-carboxamide]
7 | > 8.00 | – | C[C@@H]1CN(c2ncc(C(F)(F)F)c(N)n2)C[C@H](C)N1C(=O)NC1CC2(C1)CN(Cc1ccccc1)C2 [Compound 248, (2R,6S)-4-[4-amino-5-(trifluoromethyl)pyrimidin-2-yl]-N-{2-benzyl-2-azaspiro[3.3]heptan-6-yl}-2,6-dimethylpiperazine-1-carboxamide]
